From article PMC5996983 (Environmental science & technology, 2017)

Columns and labels:
[1] = test system: embryonic zebrafish (Danio rerio); experiment: Embryonic zebrafish developmental toxicity bioassay; details: for developmental toxicity to embryonic zebrafish: single compound standards, nominal 0.01 – 60 µM, exposure 6–120 hpf; for relative order of mean EC50: single standards, 120 hpf
alkene monooxygenase = experiment: Inhibition of PHE transformation in ELW1 by 1-octyne; type: cell-based, Mycobacterium sp. strain ELW1; details: ~7 µmol 1-octyne in the aqueous media
[2] = test system: Mycobacterium sp. strain ELW1; experiment: PHE transformation by ELW1, resting cell tests
[3] = 96-well plates ref 64; cited from earlier work
Pasteurella spp. = details: cited from earlier work
[4] = test system: Mycobacterium sp. strains PYRGCK, JS19b1, czh-3, czh-117; details: cited from earlier work
Mycobacterium sp. A1-PYR = details: cited from earlier work
[5] = cited from earlier work
Mycobacterium sp. PYR-1 = details: cited from earlier work

Oc1cccc2c1ccc1ccccc12 [1-OHPHE, 1-hydroxyphenanthrene]
developmental toxicity to embryonic zebrafish [1]: toxic | relative order of mean EC50 [1]: least toxic

C#CCCCCCC [1-Octyne, 1-octyne]
inhibition of PHE degradation (alkene monooxygenase): effectively, but not completely, inhibited

c1ccc2c(c1)ccc1ccccc12 [PHE, phenanthrene]
first-order PHE transformation rate, kPHE ([2]; 1-octyne controls): 0.015 to 0.10 h⁻¹ | half-life, t1/2 ([2]; 1-octyne controls): 7.0 to 47 h | half-life, t1/2 ([2]; PHE-exposed cells): 1.4 to 4.3 h | sorptive losses in test system [3]: less than 10% | non-normalized first-order rate of PHE transformation (Pasteurella spp.): -0.0005 h⁻¹ | zero-order transformation rate [4]: −0.0020 to −0.019 µmol hr^−1 | zero-order transformation rate (Mycobacterium sp. A1-PYR): -0.019 µmol/h | water solubility [5]: ~ 7 µM | non-normalized first-order rate of PHE transformation (Mycobacterium sp. PYR-1): -0.0015 h⁻¹

Oc1cccc2ccc3ccccc3c12 [4-OHPHE, 4-hydroxyphenanthrene]
developmental toxicity to embryonic zebrafish [1]: toxic

Oc1cc2ccccc2c2ccccc12 [9-OHPHE, 9-hydroxyphenanthrene]
developmental toxicity to embryonic zebrafish [1]: toxic

Oc1ccc2ccc3ccccc3c2c1 [3-OHPHE, 3-hydroxyphenanthrene]
developmental toxicity to embryonic zebrafish [1]: toxic

O[C@@H]1c2ccccc2-c2ccccc2[C@H]1O (relative stereo) [trans-9,10-OHPHE, trans-9,10-dihydroxy-9,10-dihydrophenanthrene]
developmental toxicity to embryonic zebrafish [1]: not toxic

Oc1cc2c(O)cccc2c2ccccc12 [1,9-OHPHE, 1,9-dihydroxyphenanthrene]
developmental toxicity to embryonic zebrafish [1]: toxic | relative order of mean EC50 [1]: most toxic
